Values of other authors in patent US7163699B2, “Progestin co-micronized with a surfactant pharmaceutical composition comprising same methods for making same and uses thereof” (Laboratories Besins International, priority 2001, dated 2007).

Settings: co-micronization with sodium lauryl sulfate or a sucrose ester of stearic acid

solubility of phenitoin: not improved
Compound: O=C1NC(=O)C(c2ccccc2)(c2ccccc2)N1 [phenitoin]
